Patent publication US12138383B2, “Heating unit for use in a drug delivery device” (ALEXZA PHARMACEUTICALS, INC., priority 2007, dated 2024)
One block for each compound: values may come before it.

Assay: Aerosol purity of condensation aerosol vaporized from drug-coated substrate in substrate screening apparatus (HPLC of filter extract)
Format: physicochemical
Details: for Aerosol Purity (% ± SD): perforated 304 stainless steel, 0.4 mg/cm^2, approx. 375° C.; for Aerosol Purity (%): 14 μm coating, 30 liters/minute
Excerpt: The substrate screening apparatus 400 is made of a machined plastic (polyoxymethylene, DELRIN® Acetal Resin, DuPont, Wilmington, DE) block 402 with a 2 cm^2 cross-sectional area for mounting a substrate 412. Block 402 includes a first airway 404 extending from first inlet 414 to outlet 422. Block 402 also include a second airway 406 extending from second inlet 416 to substrate 412, where it typically joins the first airway. The substrate 412 is mounted in the substrate screening apparatus 400 across two electrodes 420. A first air flow 414 is established in first airway 404 and a second air flow 416 is established in second airway 406 such that the second air flow 416 passes from the second airway 406 to first airway 404 through holes in the substrate 412. While providing air flows 414 and 416, the substrate 412 is heated, typically by discharging a capacitor (not shown) across the substrate 412. In a one embodiment, the flow of air passing through holes in the substrate 412 is in a direction orthogonal to that of air flow 414. Substrate 412 is coated with a drug composition film. The substrate 412 is heated to vaporized all or a portion of the drug composition. The vaporized drug subsequently cools and condenses to form a condensation aerosol that is carried to the outlet by air flow 414, joined by air flow 416). Accordingly, the condensation aerosol is emitted from the outlet 422.
The test substrates were then coated with a drug composition. The drug was typically dissolved in a volatile organic solvent (e.g., dichloromethane/methanol mixture or acetone or other suitable organic solvent) and then spray-coated onto the test substrates using an automated spray coater. Coating parameters, such as the drug concentration in the coating solution, solution flow rate, were selected to obtain a uniform drug coating of the desired coating density (i.e., mass/area).
Total air flow through the substrate screening apparatus was set by providing air flows 414 and 416 at a desired ratio. (As used herein, “across” air flow refers to air flow 414 and “bottom” air flow refers to air flow 416.) Brass electrodes 420 attached to the substrate screening apparatus 400 were used to clamp the substrate 412 in place and provide electrical connections. For most experiments, a 1-Farad capacitor was used as the energy source. The capacitor was typically charged to 11-14 volts, depending on the desired substrate temperature. A high current relay was used to connect the circuit and discharge the capacitor across the substrate to induce heating and vaporization of the drug.
FIG. 5 is a schematic of another embodiment of a substrate screening apparatus 500 that was used to direct air flow through the holes of coated polyimide film (KAPTON® polyimide film) substrates (see FIGS. 2A and 2B). Substrate screening apparatus 500 is similar in configuration and operation to substrate screening apparatus 400, with the exception that substrate screening apparatus 500 includes two electrodes 502 on the same side of the screening apparatus 500, whereas substrate screening apparatus 400 includes two electrodes 420 on opposite sides of the screening apparatus 400. In the examples using polyimide film substrates described below, a polyimide film substrate coated with a drug composition was placed in substrate screening apparatus 500 across electrodes 502. A computer-controlled power supply was connected to the electrodes. The power supply was typically capable of heating the polyimide film substrate to the target temperature within 300 milliseconds, and the substrate was kept at the target temperature for a duration of 1 second.
To determine aerosol purity and emitted dose, a 2 μm Teflon filter (ZEFLUOR PTFE filters, available from Zefon International, Inc., Ocala, FL) was placed immediately downstream from the screening apparatus during aerosol generation. […]

Compound: C[C@@H]1C[C@H]2[C@@H]3CCC4=CC(=O)C=C[C@]4(C)[C@@]3(Cl)[C@@H](O)C[C@]2(C)[C@@]1(OC(=O)c1ccco1)C(=O)CCl
aerosol purity (non-perforated SULFINERT-treated and heat-passivated 304 stainless steel, 350° C., no air flow ratio): poor

Compound: CC1(C)O[C@@H]2C[C@H]3[C@@H]4C[C@H](F)C5=CC(=O)C=C[C@]5(C)[C@H]4[C@@H](O)C[C@]3(C)[C@]2(C(=O)CO)O1 [Flunisolide, flunisolide]
Aerosol Purity (% ± SD) (across:bottom 18:10, hole diameter 0.005″, porosity 5%): 80.1 ± 1.8%
Aerosol Purity (% ± SD) (across:bottom 18:10, hole diameter 0.005″, porosity 10%): 81.4 ± 0.9%
Aerosol Purity (% ± SD) (across:bottom 18:10, hole diameter 0.005″, porosity 20%): 90.7 ± 0.7%
Aerosol Purity (% ± SD) (across:bottom 18:10, hole diameter 0.010″, porosity 5%): 83.6 ± 1.4%
Aerosol Purity (% ± SD) (across:bottom 18:10, hole diameter 0.010″, porosity 10%): 75.4 ± 1.2%
Aerosol Purity (% ± SD) (across:bottom 18:10, hole diameter 0.010″, porosity 20%): 80.8 ± 1.4%
Aerosol Purity (% ± SD) (across:bottom 18:10, hole diameter 0.010″, porosity 40%): 85.6 ± 0.8%
Aerosol Purity (% ± SD) (across:bottom 18:10, hole diameter 0.020″, porosity 5%): 77.8 ± 2%
Aerosol Purity (% ± SD) (across:bottom 18:10, hole diameter 0.020″, porosity 10%): 77.2 ± 2.8%
Aerosol Purity (% ± SD) (across:bottom 18:10, hole diameter 0.020″, porosity 20%): 74.7 ± 1%
Aerosol Purity (% ± SD) (across:bottom 18:10, hole diameter 0.020″, porosity 40%): 81.9 ± 1.2%
Aerosol Purity (% ± SD) (across:bottom 18:10, hole diameter 0.040″, porosity 5%): 70.4 ± 1.1%
Aerosol Purity (% ± SD) (across:bottom 18:10, hole diameter 0.040″, porosity 40%): 77 ± 1%
Aerosol Purity (% ± SD) (across:bottom 23:5, hole diameter 0.005″, porosity 5%): 73.6 ± 2.3%
Aerosol Purity (% ± SD) (across:bottom 23:5, hole diameter 0.005″, porosity 10%): 82.7 ± 1.4%
Aerosol Purity (% ± SD) (across:bottom 23:5, hole diameter 0.005″, porosity 20%): 87.9 ± 2%
Aerosol Purity (% ± SD) (across:bottom 23:5, hole diameter 0.010″, porosity 5%): 76.1 ± 0.1%
Aerosol Purity (% ± SD) (across:bottom 23:5, hole diameter 0.010″, porosity 10%): 71.4 ± 0.7%
Aerosol Purity (% ± SD) (across:bottom 23:5, hole diameter 0.010″, porosity 20%): 80.6 ± 3.1%
Aerosol Purity (% ± SD) (across:bottom 23:5, hole diameter 0.010″, porosity 40%): 84.2 ± 0.1%
Aerosol Purity (% ± SD) (across:bottom 23:5, hole diameter 0.020″, porosity 5%): 77.9 ± 1.1%
Aerosol Purity (% ± SD) (across:bottom 23:5, hole diameter 0.020″, porosity 10%): 72.7 ± 1.8%
Aerosol Purity (% ± SD) (across:bottom 23:5, hole diameter 0.020″, porosity 20%): 69.9 ± 0.3%
Aerosol Purity (% ± SD) (across:bottom 23:5, hole diameter 0.020″, porosity 40%): 80 ± 1.3%
Aerosol Purity (% ± SD) (across:bottom 23:5, hole diameter 0.040″, porosity 5%): 68.6 ± 1.1%
Aerosol Purity (% ± SD) (across:bottom 23:5, hole diameter 0.040″, porosity 40%): 74.3 ± 7.3%

Compound: NCC(CC(=O)O)c1ccc(Cl)cc1 (stereo not drawn) [baclofen]
drug purity (aerosol) (perforated polyimide film, across:bottom 27:1, 350° C.): around 20%

Compound: CCCc1nn(C)c2c(=O)[nH]c(-c3cc(S(=O)(=O)N4CCN(C)CC4)ccc3OCC)nc12 [sildenafil free base, sildenafil]
aerosol purity (perforated 316 stainless steel, 1:9 across:bottom, drug coating thicknesses up to 6 μm, 28.3 liters/minute): ≥ 97%
aerosol purity (solid 304 stainless steel, 100% air flow across, drug coating thickness 2 μm): ≤ 94%
aerosol purity (solid 304 stainless steel, 100% air flow across, drug coating thicknesses greater than about 1 μm): below 97%

Continued, values first:

Coated Aerosol Purity (%) (coated drug on polyimide film, coating thickness 14 μm): 98.85%
aerosol purity (perforated polyimide film, 100% of air flow through the substrate, up to at least 30 μm coating thickness, 28.3 liters/minute): ≥ 98%
Aerosol Purity (%) (perforated polyimide film, large holes, across:bottom 75:25): 97.7%
Aerosol Purity (%) (perforated polyimide film, large holes, across:bottom 100:0): 97.1%
Aerosol Purity (%) (perforated polyimide film, small holes, across:bottom 75:25): 97.4%
Aerosol Purity (%) (perforated polyimide film, small holes, across:bottom 100:0): 94.8%
Compound: CN1CCN(CCCN2c3ccccc3Sc3ccc(Cl)cc32)CC1 [Prochlorperazine, prochlorperazine]

aerosol purity (perforated polyimide film, all four test conditions (3:1 and 1:3, 325° C. and 350° C.)): > 97%
Compound: CCC(=O)O[C@]1(C(=O)SCF)[C@H](C)C[C@H]2[C@@H]3C[C@H](F)C4=CC(=O)C=C[C@]4(C)[C@@]3(F)[C@@H](O)C[C@@]21C [fluticasone propionate]

aerosol purity (perforated polyimide film, all three test conditions (6:1 at 375° C., 3:1 at 350° C., 1:1 at 350° C.)): > 99.7%
Compound: cyclobenzaprine fumarate
